“Also recorded” adds a separate entry of the source.
Tests used:
transformed tobacco = assay: Regeneration of Agrobacterium-mediated transformed tobacco tissue under kanamycin selection; type: cell-based; settings: in the presence of BAP; 100 mg/l kanamycin
Experimental: (§1) These IAA analogues were further evaluated for their abilities to effect the regeneration of plant tissues comprising foreign DNA. Tobacco and potato tissues were subjected to Agrobacterium-mediated transformation techniques, including cocultivation with Agrobacterium containing pBI121 and selecting with MS complete medium containing 0.5 mg/l BAP, 2 mg/l IAA derivative and 100 mg/l kanomycin.
(§2) Agrobacterium-mediated plant transformation was performed as described by Lin et al. (1994) Focus 16:72-77. For example:
In tobacco, the leaf discs were incubated with 10^9 cells/ml of Agrobacterium tumefaciens LBA4404 cells containing pBI121 in MS complete medium with 0.5 mg/l MES for 10 minutes, transferred to solid MS complete medium, and incubated for two days at 25° C., using an 18 hour light/6 hour dark cycle for cocultivation. After cocultivation, the explants were transferred to the MS medium containing a different ratio of BAP/IAA or BAP/IAA analogue, 100 mg/l kanamycin and 500 mg/l carbenicillin and incubated at 25° C. using an 18 hour light/6 hour dark cycle for shoot formation.

transformed potato = assay: Regeneration of Agrobacterium-mediated transformed potato tissue under kanamycin selection; type: cell-based; design: key to Potato Callus (regeneration of transformed tissue): +(−) means preliminary observation; settings: 100 mg/l kanamycin; for Potato Callus (regeneration of transformed tissue): BAP 0.5 mg/l, 2 mg/l IAA derivative, Agrobacterium pBI121; for regeneration of kanamycin resistant calli in transformed potato: in the presence of BAP
Experimental: as §1
Plant transformation in potato stems is carried out as described above in section (a) for tobacco.
as §2
In another example, potato leaf discs were transformed with the Agrobacterium-mediation technique as described above for tobacco. The potato explants were then subjected to incubation with IAA analogues in the absence and presence of cytokinin to screen for auxinic activities.

tobacco leaf discs [1] = assay: Regeneration of roots or calli from tobacco leaf explants, MS complete medium with auxin only; type: cell-based, Nicotiana tobaccum Xanthi; design: key to Tobacco Callus (regeneration): +(−) means preliminary observation; settings: for Tobacco Callus (regeneration): Auxins 2 mg/l, no cytokinin, MS complete medium
Experimental: (§3) In particular embodiments of the invention, various IAA analogues were screened for auxinic activity by incubating different plant tissues, e.g., tobacco and tomato leaf discs and potato stems in (a) MS complete medium (obtained from Life Technologies, Inc., Gaithersburg, Md.) containing different concentrations of auxin only and (2) the MS complete auxin medium containing different ratios of cytokinin/auxin.
(§4) In another embodiment of the invention, IAA analogues were screened for auxinic activity. […] Table 1 documents the ability of the different IAA analogues to stimulate the regeneration of roots or calli from tobacco, tomato and potato. In general, IAA analogues having a bromine substitution at the 2
Seeds of Nicotiana tobaccum Xanthi are provided by Dr. James Saunders (USDA, Beltsville, Md.). Young tobacco leaves are removed and cut into small pieces.
The regeneration of plant tissues using tissue culture depends on plant hormones such as auxin and cytokinin. It is known that the presence of an auxin in plant tissue cultured on Murashige and Skoog (MS) medium (Murashige, T. and F. Skoog (1962) Physiol. Plant 15:473-497) stimulates the formation of root structure whereas the formation of callus is observed when not only the auxin but also a cytokinin complement the MS nutrient medium. Therefore, evaluation of a test compound as a potential new auxin is performed by incubating tobacco leaf discs in (a) the MS complete medium containing different concentrations of auxin only and (b) the MS complete medium containing different ratios of cytokinin to auxin concentrations (cytokinin/auxin).
(§5) Young tobacco leaves, potato stems, tomato leaves and cassava leaves and stems from one-month-old plants were removed and cut into small pieces. The explants were incubated on (1) the MS complete medium containing different concentrations of auxin related compounds only (2) the MS complete medium containing different concentrations of auxin-related compounds and 0.5 mg/l benzylaminopurine (BAP) using an 18 hour light/6 hour dark cycle until the formation of green calli, shoots or roots.

Cassava leaves and stems = assay: Regeneration of shoots or calli from cassava leaves and stems with auxin in the presence of BAP; type: cell-based; settings: 2 mg/l with 0.5 mg/l BAP, MS complete medium
Experimental: Further, examples of IAA analogues of the invention were evaluated for auxinic activity in the presence of a cytokinin.
In another embodiment of the invention, IAA analogues of the present invention were applied to the regeneration of plant tissues known in the art to be difficult to regenerate, such as cassava, woody plants, and monocotyledonous crops [Vasil and Vasil (1994) in Plant Cell and Tissue Culture (Vasil and Thorpe, eds.), Kluwer Academic Publishers, Dordrech, Netherlands; Chee (1995) Plant Cell Reports 14:753-757; Bums and Schwartz (1996) Plant Cell Reports 15:405-408; Mihaljevic et al. (1996) Plant Cell Reports 15:610-614; Schopke et al. (1996) Nature Biotechnology 14:731].
Stems or third young leaves were removed from the one month old Cassava plants and cut into small pieces. The explants were incubated on MS complete medium containing different concentrations of auxin related compounds and 0.5 mg/l benzylaminopurine (BAP).
(§6) Young tobacco leaves, potato stems, tomato leaves and cassava leaves and stems from one-month-old plants were removed and cut into small pieces. […]

Arabidopsis thaliana = test system: Arabidopsis thaliana
Experimental: Seeds of Arabidopsis thaliana ecotypes Columbia and Landersberg ereta are provided by Dr. Keith Davis (The Ohio State University, Columbus). Tissues of hypocotyl are removed from 10-day-old seedlings, transferred to MS complete medium containing (1) different concentrations of IAA or IAA analogue with different concentrations of N^6.(Δ2Isopentenyl) adenine (2iP) and (2) different concentrations of IAA analogue with different concentrations of 2iP, BAP, or kinetin. The explants are incubated at 23° C. using an 18 h light/6 h dark cycle until the formation of green calli and shoots.

[2] = disclosed in copending U.S. application Ser. No. 08/430,209; cited from earlier work
tomato leaf discs [3] = assay: Regeneration of roots or calli from tomato leaf explants, MS complete medium with auxin only; type: cell-based; settings: 0.5, 2.0 and 8.0 mg/l, absence of BAP
Experimental: as §3, §4
Tomato seeds of variety “Moneymaker” are provided by Dr. James Saunders (USDA, Beltsville, Md.). Young tomato leaves are removed and cut into small pieces. Explants are incubated in MS complete medium with auxin in the presence or absence of cytokinin as described in section (a) above for tobacco.
as §6

potato stems [4] = assay: Regeneration of roots or calli from potato stem explants, MS complete medium with auxin only; type: cell-based; design: key to Potato Roots (regeneration): +(−) means preliminary observation; settings: for root formation in potato stems: absence of BAP
Experimental: as §3, §4
Potato seeds of variety “Kent V. F.” are provided by Dr. James Saunders (USDA, Beltsville, Md.). Young potato stems are removed and cut into small pieces. Explants are incubated in MS complete medium with auxin in the presence or absence of cytokinin as described in section (a) above for tobacco.
as §5

tobacco leaf discs [5] = assay: Regeneration of shoots or calli from tobacco leaf explants, auxin together with cytokinin (BAP); type: cell-based, Nicotiana tobaccum Xanthi; design: key to Tobacco Callus (regeneration): +(−) means preliminary observation
Experimental: In particular embodiments of the invention, various IAA analogues were screened for auxinic activity by incubating different plant tissues, e.g., tobacco and tomato leaf discs and potato stems in (a) MS complete medium (obtained from Life Technologies, Inc., Gaithersburg, Md.) containing different concentrations of auxin only and (2) the MS complete auxin medium containing different ratios of cytokinin/auxin. These IAA derivatives were further evaluated for auxinic activity in the presence of a cytokinin. […] Incubation of plant tissues Seeds of Nicotiana tobaccum Xanthi are provided by Dr. James Saunders (USDA, Beltsville, Md.). Young tobacco leaves are removed and cut into small pieces. […] The regeneration of plant tissues using tissue culture depends on plant hormones such as auxin and cytokinin. It is known that the presence of an auxin in plant tissue cultured on Murashige and Skoog (MS) medium (Murashige, T. and F. Skoog (1962) Physiol. Plant 15:473-497) stimulates the formation of root structure whereas the formation of callus is observed when not only the auxin but also a cytokinin complement the MS nutrient medium. […]

tomato leaf discs [6] = assay: Regeneration of shoots or calli from tomato leaf explants, auxin together with cytokinin (BAP); type: cell-based; settings: 0.5, 2.0 or 8.0 with 0.5 mg/l BAP
Experimental: In particular embodiments of the invention, various IAA analogues were screened for auxinic activity by incubating different plant tissues, e.g., tobacco and tomato leaf discs and potato stems in (a) MS complete medium (obtained from Life Technologies, Inc., Gaithersburg, Md.) containing different concentrations of auxin only and (2) the MS complete auxin medium containing different ratios of cytokinin/auxin. These IAA derivatives were further evaluated for auxinic activity in the presence of a cytokinin. […] Incubation of plant tissues Tomato seeds of variety “Moneymaker” are provided by Dr. James Saunders (USDA, Beltsville, Md.). Young tomato leaves are removed and cut into small pieces. Explants are incubated in MS complete medium with auxin in the presence or absence of cytokinin as described in section (a) above for tobacco. Young tobacco leaves, potato stems, tomato leaves and cassava leaves and stems from one-month-old plants were removed and cut into small pieces. The explants were incubated on (1) the MS complete medium containing different concentrations of auxin related compounds only (2) the MS complete medium containing different concentrations of auxin-related compounds and 0.5 mg/l benzylaminopurine (BAP) using an 18 hour light/6 hour dark cycle until the formation of green calli, shoots or roots.

potato stems [7] = assay: Regeneration of shoots or calli from potato stem explants, auxin together with cytokinin (BAP); type: cell-based; design: key to Potato Callus (regeneration): +(−) means preliminary observation
Experimental: In particular embodiments of the invention, various IAA analogues were screened for auxinic activity by incubating different plant tissues, e.g., tobacco and tomato leaf discs and potato stems in (a) MS complete medium (obtained from Life Technologies, Inc., Gaithersburg, Md.) containing different concentrations of auxin only and (2) the MS complete auxin medium containing different ratios of cytokinin/auxin. These IAA derivatives were further evaluated for auxinic activity in the presence of a cytokinin. […] Incubation of plant tissues Potato seeds of variety “Kent V. F.” are provided by Dr. James Saunders (USDA, Beltsville, Md.). Young potato stems are removed and cut into small pieces. Explants are incubated in MS complete medium with auxin in the presence or absence of cytokinin as described in section (a) above for tobacco. Young tobacco leaves, potato stems, tomato leaves and cassava leaves and stems from one-month-old plants were removed and cut into small pieces. The explants were incubated on (1) the MS complete medium containing different concentrations of auxin related compounds only (2) the MS complete medium containing different concentrations of auxin-related compounds and 0.5 mg/l benzylaminopurine (BAP) using an 18 hour light/6 hour dark cycle until the formation of green calli, shoots or roots.

Compound	regeneration of kanamycin resistant calli and shoots in transformed tobacco (transformed tobacco)	Potato Callus (regeneration of transformed tissue) (transformed potato)	regeneration of kanamycin resistant calli in transformed potato (transformed potato)	other results
O=C(O)Cc1c[nH]c2c(Br)cccc12 [7-BrIAA, 7-bromoindole-3-acetic acid]	stimulated	+(−)	stimulated	–
O=C(O)Cc1c[nH]c2c(F)cccc12 [7-FIAA, 7-fluoroindole-3-acetic acid]	stimulated	+(−)	stimulated	–
O=C(O)Cc1c[nH]c2ccc(Cl)cc12 [5-ClIAA, 5-chloroindole-3-acetic acid]	stimulated	–	stimulated	–
COc1ccc2[nH]cc(CC(=O)O)c2c1 [5-MeoIAA, 5-methoxyindole-3-acetic acid]	stimulated	–	stimulated	–
CCc1ccc2[nH]cc(CC(=O)O)c2c1 [5-EtIAA, 5-ethylindole-3-acetic acid]	stimulated	–	stimulated	Tobacco Callus (regeneration) (tobacco leaf discs [1]): +(−)
O=C(O)Cc1c[nH]c2ccc(F)cc12 [5-FIAA, 5-fluoroindole-3-acetic acid]	stimulated	–	stimulated	shoot formation in cassava stems and leaves (Cassava leaves and stems): promoted the formation of shoots in cassava stems and to a greater extent from cassava leaves; also recorded: regeneration of shoots
5-bromo-IAA	–	–	–	effectiveness in stimulating the regeneration of green calli, relative to IAA (Arabidopsis thaliana): between two and four times more effective than IAA; callus and shoot formation in combination with cytokinin [2]: both callus and shoot formation are observed
O=C(O)Cc1c[nH]c2cc(Br)ccc12 [6-BrIAA, 6-bromoindole-3-acetic acid]	–	–	–	growth response of tobacco leaf discs (tobacco leaf discs [1]; different concentrations, absence of BAP): both the formation of roots and the formation of calli were observed; growth response of tomato leaf discs (tomato leaf discs [3]): only root formation was observed; root formation in potato stems (potato stems [4]): root formation was diminished; root formation in potato stems (potato stems [4]; concentration increased from 0.5 to 2.0 mg/l): root formation increased; growth response of tobacco leaf discs (tobacco leaf discs [5]; different concentrations, presence of BAP): the formation of both shoots and calli occurred; growth response of tomato leaf discs (tomato leaf discs [6]): calli, not roots, were formed; growth response of potato stems (potato stems [7]; 0.5, 2.0, 8.0 mg/l with BAP 0.5 mg/l): callus formation was observed at all ratios of cytokinin/auxin
O=C(O)Cc1c[nH]c2ccc(I)cc12 [5-IIAA, 5-iodoindole-3-acetic acid]	–	–	–	Tobacco Callus (regeneration) (tobacco leaf discs [1]): +(−); Potato Roots (regeneration) (potato stems [4]; Auxins 2 mg/l, no cytokinin, MS complete medium): +(−); Tobacco Callus (regeneration) (tobacco leaf discs [5]; BAP 0.5 mg/l + Auxins 2 mg/l): +(−); Potato Callus (regeneration) (potato stems [7]; BAP 0.5 mg/l + Auxins 2 mg/l): +(−)
CCc1cccc2c(CC(=O)O)c[nH]c12 [7-EtIAA, 7-ethylindole-3-acetic acid]	stimulated	+(−)	stimulated	–

From US6815205B2, “Auxinic analogues of indole-3-acetic acid” (Invitrogen Corporation, priority 1995, dated 2004)
